In patent US11207432B2, “Substituted organofluoroborates as imaging agents” (THE UNIVERSITY OF BRITISH COLUMBIA, priority 2013, dated 2021):

Tests used:
[1] = pKa of the carboxylic acid carrying the same moiety as the RBF3 compound; cited from earlier work
[2] = Solvolytic defluoridation of fluoridated organotrifluoroborates by 19F-NMR; assay type: physicochemical; settings: 200 mM phosphate buffer pH 7.5, 19F NMR; for k(solvolysis): pseudo-first-order fit; for half-life: solvolytic defluoridation, read-out: half-life, t1/2
Method: The following is are representative examples of testing of solvolytic defluoridation of fluoridated organoborates as shown in FIG. 1A to FIG. 1FF and Table 1. Solutions of the fluoridated organotrifluoroborates were made by dissolving 30 mg of the fluoridated organotrifluoroborate into 1 mL of 20% ethanol/acetonitrile.
As the fluoridated organotrifluoroborate salts were often contaminated with a significant amount of free fluoride, a silica column was used to remove the free fluoride from the organotrifluoroborate solution. After loading the crude reaction onto the silica column, the fractions containing the desired organotrifluoroborate were eluted and combined to form a combined solution. In view of the strong stability of the fluoridated organotrifluoroborate in organic solvent, 20% of the combined solution was stored in an NMR tube and this sample served as the “zero” minute time point. A purified organotrifluoroborate salt was isolated from the remaining portion of the combined solution (remaining 80% of the combined solution) by removing the organic solvent from the combined solution by vacuum. Removal of the organic solvent from the combined solution gave the purified fluoridated alkylbornate salt in the form of a white solid. The dry and purified fluoridated organotrifluoroborate salt was re-dissolved into 3 mL of 200 mM phosphate buffer. Solvolytic defluoridation started immediately upon dissolution of the fluoridated organotrifluoroborate salt into phosphate buffer, and accordingly, the time was recorded at the moment of dissolution. The progress of solvolytic defluoridation of the fluoridated organotrifluoroborate salt was monitored using ^19F NMR spectroscopy. General principles, methods and background relating to the use of ^19F NMR spectroscopy for monitoring defluoridation are known, and may be found in, for example, Ting et al. (2008, J. Org. Chem. 73; 4662-70; Harwig et al. (2008) Tetrahedron Letters 49:3152-56; and Ting et al. (2008) Journal of Fluorine Chemistry 129:349-58. For each time point, solvolytic defluoridation data was collected using a 300 MHz ^19F NMR spectrometer (Bruker). ^19F NMR spectroscopic tracers for the fluoridated organotrifluoroborate salt at different times are shown in FIG. 1A. Use of ^19F-NMR to measure solvolytic defluoridation provides a useful model for measuring solvolytic 18F-defluoridation because if one F is lost, all are lost. Moreover, it is understood that the kinetic isotope effect in terms of B—F bond solvolysis is negligible. […] The degree of solvolytic defluoridation of the fluoridated organotrifluoroborate salt was plotted as a function of time, for example, as shown in FIG. 1B for Compound 6 of Table 1. ^19F NMR spectroscopic tracers for the fluoridated organotrifluoroborate salts of compounds listed in Table 1 at different times are shown in FIGS. 1A, 1C, 1E, 1G, 1I, 1K, 1M, 1O, 1Q, 1S, 1U, 1W, 1Y, 1AA, 1CC, and 1EE, and the degree of solvolytic defluoridation of the compounds as a function of time is shown in FIGS. 1B, 1D, 1F, 1H, 1J, 1L, 1N, 1P, 1R, 1T, 1V, 1X, 1ZZ, 1BB, 1DD, and 1FF.
The time curves shown in FIGS. 1B and 1D were fitted and a rate constant, ksolvolysis, for each time curve was calculated. As a measure of the stability of the fluoridated organoborate to solvolytic defluoridation, pkB—F values were calculated using the equation pkB—F=−log(ksolvolysis). In addition to pkB—F values, observed solvolytic defluoridation half-life, t1/2, values and rate constants, ksolvolysis, for a number of different fluoridated organoborates are listed in Table 1.

[3] = Stability of Rhodamine-BF3 conjugates in plasma by TLC; assay type: in vitro ADME, mice; settings: tested as Rhodamine B conjugate, 37° C., 2 hours, fluorescence analysis
Method: The symbols A, B, C represent Rhodamine-ArBF3, Rhodamine-PyrBF3, and […] of Table 1, respectively. The subscript numbers 1, 2, 3 represent different test conditions: Plasma 1, Plasma 2 and PBS buffer (Plasma 1 and Plasma 2 were acquired from different mice).
The following is a representative example of testing of solvolytic defluoridation of a fluoridated organotrifluoroborate as shown in FIG. 3. 2 nmol Rhodamine-BF3 was added into 100 μL plasma, and then incubated at 37° C. After 2 hours, 200 μL acetonitrile (ACN) was added to precipitate the protein from the solution. The crude was filtered with 40 μm filter paper, and then a reddish purple solution was achieved. 1 μL of this solution was loaded on the TLC plate. The TLC plate was developed by 15% methanol/DCM. The TLC chromatograms for an aryltrifluoroborate (Rhodamine-ArBF3), Rhodamine-PyrBF3, and a quaternary ammoniomethyltrifluoroborate (Rhodamine-Compound 10 of Table 1) are shown as FIG. 3.
In the TLC chromatograms, Rhodamine B was conjugated with the trifluoroborate to trace the decomposition. The hydrolyzed product lost the negative charge, and therefore migrated much more rapidly than the precursor.

[4] = Stability of 18F-radiolabeled organotrifluoroborate in plasma by HPLC; assay type: in vitro ADME; settings: 18F-labelled, 37° C., 150 mins, in vitro test n=3
Method: 1.1 mCi of ^18F-Compound 10 (^18F-ammoniomethyltrifluoroborate) was mixed with 100 μL of plasma to form a ^18F-Compound 10-plasma mixture, and then incubated at 37° C. for two hours. 200 uL of acetonitrile (ACN) was then added to the ^18F-Compound 10-plasma mixture to precipitate the protein from the mixture. The precipated protein portion was separated from the mixture by filtration with 40 μm filter paper, and the clear filtrate was injected into an HPLC for stability analysis. Chromatograms for independent HPLC tests of Rhodamine-Compound 10 of Table 1 at 0 minutes (A), 80 minutes (B), 150 minutes (C), 0 minutes (D), 150 minutes (E), and 150 minutes (F) are shown in FIG. 4A through FIG. 4F.

Structure (SMILES)	pKa of Corresponding COOH [1]	pk (solvolysis) = −log k(solvolysis) [2]	k(solvolysis) [2]	half-life [2] [h]	decomposition (hydrolyzed product) on TLC after incubation in plasma [3]	decomposition in plasma by HPLC [4]
CCCC[B-](F)(F)F [Compound 1, butyltrifluoroborate]	4.81	0.52	0.3 min − 1	0.0383 to 0.05	–	–
C=C[B-](F)(F)F [Compound 2, vinyltrifluoroborate]	4.25	1.01	0.099 min − 1	0.117	–	–
F[B-](F)(F)COCc1ccccc1 [Compound 3]	3.53	2.32	0.00476 min − 1	2.42	–	–
F[B-](F)(F)CBr [Compound 4, bromomethyltrifluoroborate]	2.86	2.98	0.000768 min − 1	11	–	–
O=C(CCCCO)[B-](F)(F)F [Compound 5]	2.5	3.5249	0.000298 min − 1	38.5	–	–
CC[NH+](CC)C[B-](F)(F)F [Compound 6]	2.34	3.7554	0.000175 min − 1	65.5	–	–
O=C(c1ccccc1)[B-](F)(F)F [Compound 8, benzoytrifluoroborate]	2.35	4.0700	–	–	–	–
C#CC[N+](C)(C)C[B-](F)(F)F [Compound 10]	1.83	4.5036	3.14 × 10^−5 min − 1	367	almost no hydrolyzed product was detected	almost no decomposition was observed
F[B-](F)(F)C(Cl)Cl [Compound 11]	1.29	5.3372	4.6 × 10^−5 min − 1	2500	–	–
C[S+](C[B-](F)(F)F)c1ccccc1 (stereo not shown) [Compound 12]	–	5.82	1.5 × 10^−5 min − 1	7670	–	–
F[B-](F)(F)C[n+]1ccccc1 [Compound 14]	2.14	4.19	6.45 × 10^−5 min − 1	178	–	–
C[n+]1ccn(C[B-](F)(F)F)c1 [Compound 15]	–	2.59	0.00259 min − 1	4.43	–	–
COC(=O)C[N+](C)(C)C[B-](F)(F)F [Compound 16]	–	4.17	0.0000673 min − 1	172	–	–
C[N+](C)(CC(=O)O)C[B-](F)(F)F [Compound 17]	–	2.70	0.0020 min − 1	5.77	–	–
C#CC[N+](C)(C[B-](F)(F)F)C[B-](F)(F)F [Compound 18]	–	3.61	0.000246 min − 1	47	–	–
